Results reported in patent US20240049725A1, “CO[…] OTHER IN[…] AND USES THEREOF” (SYNGENTA CROP PROTECTION AG, priority 2020, published 2024).
Positions of bridges follow the written chain, without caps; N, C: chain ends. Residues, ends and D or L forms follow the SMILES beside them.

What was measured:
Plutella xylostella L1 = test: leaf disc spray test on Brassica chinensis, mortality of Plutella xylostella L1 larvae; format: in vivo; conditions: Abbott-corrected
Method: (§1) Brassica chinensis leaf discs with a 5 cm diameter were cut out and placed in a Petri dish which was prepared with 3 filter paper and 800 μl water. 100 μl of test solution was applied on the lower surface by spraying and dried to air. Next, the leaf was flipped and 100 μl of test solution was applied on the upper surface by spraying and dried to air. The leaf 3 was infested with 10 L1 larvae of Plutella xylostella, after which the dish was closed with a cotton filter and a plastic lid. The Petri dish was placed in a climate chamber at a temperature of 25° C., a relative humidity of 65% and with no artificial light cycle. Four days after infestation 150 μl water was added to the Petri dish. Three Petri dishes were assessed per treatment.

[1] = tested on: crustaceans, cockroaches, blow fly larvae and Helicoverpa armigera; conditions: in vivo; cited from earlier work
[2] = tested on: larvae of Helicoverpa armigera; conditions: Jennings et al, 2005; cited from earlier work
Spodoptera littoralis L1 = test: leaf disc spray test on Gossypium hirsutum, mortality of Spodoptera littoralis L1 larvae; format: in vivo; conditions: 10000 ppm, Abbott-corrected
Method: as §1, with “Gossypium hirsutum” for “Brassica chinensis”, “leaf” for “leaf 3”, “Spodoptera littoralis,” for “Plutella xylostella,”, “cycle. Two days after infestation 200 μl water was added to the Petri dish.” for “cycle.”, “500” for “150”

Plutella xylostella L3 = test: leaf disc spray test on Brassica chinensis, mortality of Plutella xylostella L3 larvae; format: in vivo; conditions: Abbott-corrected
Method: as §1, with “leaf” for “leaf 3”, “L3” for “L1”, “larvae (6-7 days old)” for “larvae”

Cydia pomonella L1 = test: artificial diet test in 24-well plate, mortality of Cydia pomonella L1 larvae; format: in vivo; conditions: 10000 ppm; Table E; Abbott-corrected
Method: An artificial diet was prepared. 1.5 ml of artificial diet was applied in a well of a 24-well plate followed by 50 μl of test solution by spraying. The well-plate was infested with 1 L1 larva of Cydia pomonella per well, after which the plate was closed with a carton filter and a metal lid. The 24-well plate was placed in a climate chamber at a temperature of 25° C., a relative humidity of 65% and with no artificial light cycle. Five wells (replicates) were assessed per treatment.

CC(C)C[C@@H]1NC(=O)CNC(=O)[C@H](CC(N)=O)NC(=O)[C@H](CCCNC(=N)N)NC(=O)[C@H]([C@@H](C)O)NC(=O)[C@@H]2CSSC[C@@H]3NC(=O)[C@H]([C@@H](C)O)NC(=O)CNC(=O)CNC(=O)[C@H](C(C)C)NC(=O)[C@@H]4CSSC[C@H](NC(=O)[C@H]([C@@H](C)O)NC(=O)[C@H](CSSC[C@H](NC(=O)[C@H](C(C)C)NC(=O)[C@@H]5CCCN5C1=O)C(=O)NCC(=O)N[C@@H](CCC(=O)O)C(=O)N[C@@H]([C@@H](C)O)C(=O)N4)NC(=O)CNC(=O)[C@@H]1CCCN1C(=O)[C@H]([C@@H](C)O)NC(=O)[C@H](CC(N)=O)NC3=O)C(=O)N[C@@H](CO)C(=O)N[C@@H](Cc1c[nH]c3ccccc13)C(=O)N1CCC[C@H]1C(=O)N[C@@H](CCCCN)C(=O)N2 [SEQ ID NO: 6 (kB1[V25K]), Mutated kB1 (kB1[V25K])] (cyclo(CGETCVGGTCNTPGCTCSWPKCTRNGLPV); disulfide 1-15, 5-17, 10-22 (inferred); ring closure inferred)
observed mortality of Plutella xylostella L1, 1 d after infestation (Plutella xylostella L1; 625 ppm, Table C): 0%
observed mortality of Plutella xylostella L1, 2 d after infestation (Plutella xylostella L1; 625 ppm, Table C): 0%
observed mortality of Plutella xylostella L1, 3 d after infestation (Plutella xylostella L1; 625 ppm, Table C): 0%
observed mortality of Plutella xylostella L1, 4 d after infestation (Plutella xylostella L1; 625 ppm, Table C): 0%
observed mortality of Plutella xylostella L1, 6 d after infestation (Plutella xylostella L1; 625 ppm, Table C): 0%

CC(C)[C@H](NC(=O)[C@H](CCCCN)NC(=O)[C@@H]1CCCN1C(=O)CNC(=O)[C@H](CO)NC(=O)[C@@H]1CSSC[C@@H]2NC(=O)[C@@H]3CCCN3C(=O)[C@@H]3CSSC[C@H](NC(=O)CNC(=O)CNC(=O)[C@H](Cc4c[nH]c5ccccc45)NC(=O)[C@H](Cc4ccc(O)cc4)NC2=O)C(=O)N2CCC[C@H]2C(=O)N[C@@H](Cc2c[nH]c4ccccc24)C(=O)NCC(=O)N[C@@H](CCC(N)=O)C(=O)N[C@@H](CC(N)=O)C(=O)N[C@@H](CSSC[C@H](NC(=O)[C@H](CO)NC(=O)[C@@H](N)CCCNC(=N)N)C(=O)N3)C(=O)N[C@@H](Cc2ccc(O)cc2)C(=O)N2CCC[C@H]2C(=O)N[C@@H](CCC(=O)O)C(=O)NCC(=O)N1)C(=O)O [SEQ ID NO: 4 (Av3), Av3]
toxicity to crustaceans, cockroaches, blow fly larvae and Helicoverpa armigera [1]: toxic

CC[C@H](C)[C@@H]1NC(=O)[C@@H]2CCCN2C(=O)[C@H](Cc2c[nH]c3ccccc23)NC(=O)[C@H]([C@@H](C)O)NC(=O)[C@@H]2CSSC[C@@H]3NC(=O)[C@H]([C@@H](C)O)NC(=O)[C@H](CCC(=O)O)NC(=O)CNC(=O)[C@@H]4CSSC[C@H](NC(=O)CNC(=O)[C@@H]5CCCN5C(=O)[C@H]([C@@H](C)O)NC(=O)[C@H](CC(N)=O)NC(=O)[C@H](CSSC[C@H](NC1=O)C(=O)N[C@@H]([C@@H](C)O)C(=O)N[C@@H](CCCNC(=N)N)C(=O)N[C@@H](CC(=O)O)C(=O)NCC(=O)N[C@@H](CC(C)C)C(=O)N1CCC[C@H]1C(=O)N[C@@H](C(C)C)C(=O)N4)NC(=O)[C@H]([C@@H](C)O)NC(=O)CNC(=O)CNC(=O)[C@H](Cc1ccccc1)NC3=O)C(=O)N[C@@H](CO)C(=O)N2 [SEQ ID NO: 2 (kB2), Kalata B2] (cyclo(CFGGTCNTPGCSCTWPICTRDGLPVCGET); disulfide 1-13, 6-18, 11-26 (inferred); ring closure inferred)
insecticidal activity against the larvae of Helicoverpa armigera [2]: potent insecticidal activity
observed mortality of Plutella xylostella L1, 1 d after infestation (Plutella xylostella L1; 157 ppm, Table B2): 0%
observed mortality of Plutella xylostella L1, 2 d after infestation (Plutella xylostella L1; 157 ppm, Table B2): 0%
observed mortality of Plutella xylostella L1, 3 d after infestation (Plutella xylostella L1; 157 ppm, Table B2): 0%
observed mortality of Plutella xylostella L1, 4 d after infestation (Plutella xylostella L1; 157 ppm, Table B2): 0%
observed mortality of Plutella xylostella L1, 7 d after infestation (Plutella xylostella L1; 157 ppm, Table B2): 0%
observed mortality of Plutella xylostella L1, 1 d after infestation (Plutella xylostella L1; 625 ppm, Table C): 0%
observed mortality of Plutella xylostella L1, 2 d after infestation (Plutella xylostella L1; 625 ppm, Table C): 0%
observed mortality of Plutella xylostella L1, 3 d after infestation (Plutella xylostella L1; 625 ppm, Table C): 4%
observed mortality of Plutella xylostella L1, 4 d after infestation (Plutella xylostella L1; 625 ppm, Table C): 4%
observed mortality of Plutella xylostella L1, 6 d after infestation (Plutella xylostella L1; 625 ppm, Table C): 0%

CC(C)C[C@@H]1NC(=O)CNC(=O)[C@H](CC(N)=O)NC(=O)[C@H](CCCNC(=N)N)NC(=O)[C@H]([C@@H](C)O)NC(=O)[C@@H]2CSSC[C@@H]3NC(=O)[C@H]([C@@H](C)O)NC(=O)CNC(=O)CNC(=O)[C@H](C(C)C)NC(=O)[C@@H]4CSSC[C@H](NC(=O)[C@H]([C@@H](C)O)NC(=O)[C@H](CSSC[C@H](NC(=O)[C@H](C(C)C)NC(=O)[C@@H]5CCCN5C1=O)C(=O)NCC(=O)N[C@@H](CCC(=O)O)C(=O)N[C@@H]([C@@H](C)O)C(=O)N4)NC(=O)CNC(=O)[C@@H]1CCCN1C(=O)[C@H]([C@@H](C)O)NC(=O)[C@H](CC(N)=O)NC3=O)C(=O)N[C@@H](CO)C(=O)N[C@@H](Cc1c[nH]c3ccccc13)C(=O)N1CCC[C@H]1C(=O)N[C@@H](C(C)C)C(=O)N2 [SEQ ID NO: 1 (kB1), Kalata B1]
observed mortality of Spodoptera littoralis L1, 1 d after infestation (Spodoptera littoralis L1; Table A): 0%
observed mortality of Spodoptera littoralis L1, 2 d after infestation (Spodoptera littoralis L1; Table A): 35%
observed mortality of Spodoptera littoralis L1, 3 d after infestation (Spodoptera littoralis L1; Table A): 29%
observed mortality of Spodoptera littoralis L1, 6 d after infestation (Spodoptera littoralis L1; Table A): 32%
observed mortality of Spodoptera littoralis L1, 1 d after infestation (Spodoptera littoralis L1; Table G): 5%
observed mortality of Spodoptera littoralis L1, 2 d after infestation (Spodoptera littoralis L1; Table G): 25%
observed mortality of Spodoptera littoralis L1, 3 d after infestation (Spodoptera littoralis L1; Table G): 36%
observed mortality of Plutella xylostella L3, 1 d after infestation (Plutella xylostella L3; 2500 ppm, Table D): 0%
observed mortality of Plutella xylostella L3, 2 d after infestation (Plutella xylostella L3; 2500 ppm, Table D): 0%
observed mortality of Plutella xylostella L3, 3 d after infestation (Plutella xylostella L3; 2500 ppm, Table D): 3%
observed mortality of Plutella xylostella L3, 4 d after infestation (Plutella xylostella L3; 2500 ppm, Table D): 20%
observed mortality of Plutella xylostella L3, 1 d after infestation (Plutella xylostella L3; 5000 ppm, Table D): 0%
observed mortality of Plutella xylostella L3, 2 d after infestation (Plutella xylostella L3; 5000 ppm, Table D): 0%
observed mortality of Plutella xylostella L3, 3 d after infestation (Plutella xylostella L3; 5000 ppm, Table D): 3%
observed mortality of Plutella xylostella L3, 4 d after infestation (Plutella xylostella L3; 5000 ppm, Table D): 37%
observed mortality of Plutella xylostella L3, 1 d after infestation (Plutella xylostella L3; 5000 ppm, Table F): 0%
observed mortality of Plutella xylostella L3, 2 d after infestation (Plutella xylostella L3; 5000 ppm, Table F): 0%
observed mortality of Plutella xylostella L3, 3 d after infestation (Plutella xylostella L3; 5000 ppm, Table F): 22%
insecticidal activity against the larvae of Helicoverpa armigera [2]: potent insecticidal activity
observed mortality of Cydia pomonella L1, 1 d after infestation (Cydia pomonella L1): 20%
observed mortality of Cydia pomonella L1, 2 d after infestation (Cydia pomonella L1): 20%
observed mortality of Cydia pomonella L1, 3 d after infestation (Cydia pomonella L1): 20%
observed mortality of Cydia pomonella L1, 4 d after infestation (Cydia pomonella L1): 20%
observed mortality of Cydia pomonella L1, 7 d after infestation (Cydia pomonella L1): 20%
observed mortality of Plutella xylostella L1, 1 d after infestation (Plutella xylostella L1; 625 ppm, Table B1): 0%
observed mortality of Plutella xylostella L1, 2 d after infestation (Plutella xylostella L1; 625 ppm, Table B1): 0%
observed mortality of Plutella xylostella L1, 3 d after infestation (Plutella xylostella L1; 625 ppm, Table B1): 3%
observed mortality of Plutella xylostella L1, 4 d after infestation (Plutella xylostella L1; 625 ppm, Table B1): 14%
observed mortality of Plutella xylostella L1, 7 d after infestation (Plutella xylostella L1; 625 ppm, Table B1): 17%
observed mortality of Plutella xylostella L1, 1 d after infestation (Plutella xylostella L1; 625 ppm, Table C): 0%
observed mortality of Plutella xylostella L1, 2 d after infestation (Plutella xylostella L1; 625 ppm, Table C): 11%
observed mortality of Plutella xylostella L1, 3 d after infestation (Plutella xylostella L1; 625 ppm, Table C): 9%
observed mortality of Plutella xylostella L1, 4 d after infestation (Plutella xylostella L1; 625 ppm, Table C): 22%
observed mortality of Plutella xylostella L1, 6 d after infestation (Plutella xylostella L1; 625 ppm, Table C): 20%
